Test results from patent EP0597303A2, “Cephalosporin derivatives” (priority 1992, dated 1994).
Structures can show the parent of a compound that is named as a salt. Where two headings read alike, the source gives them in different places.

Experiments:
Test in all cases: MIC, Agar (Mueller Hinton) Dilution Method
Type in all cases: cell-based
E. coli 1573E = conditions: Escherichia coli; E. coli 1573E; Gram Negative; read-out: MIC
Source text: (§1) The in vitro activity of the compounds of formula I of the present invention as measured by the Minimum Inhibitory Concentration (MIC) in micrograms/ml utilizing the Agar (Mueller Hinton) Dilution Method against a variety of Gram-positive and Gram-negative organisms, is set forth in Table 1.

E. coli DC-2 = conditions: Escherichia coli, DC2, Gram Negative
Source text: as §1

Prot. vulgaris 100 = conditions: Proteus vulgaris, Gram Negative
Source text: as §1

Staph. aureus Evans = conditions: Staphylococcus aureus
Source text: as §1

Bacillus subtilis 558 = system: Bacillus subtilis 558
Source text: as §1

[1] = system: Ps. aeruginosa ATCC 27853; conditions: Pseudomonas aeruginosa, ATCC27853, Gram Negative
Source text: as §1

E. coli 2722B = conditions: Escherichia coli, Gram Negative
Source text: as §1

E. coli B = conditions: Escherichia coli, Gram Negative
Source text: as §1

Cit. freundii EL-1408 = conditions: Citrobacter freundii, EL1408
Source text: as §1

Ps. aeruginosa 765 = conditions: Pseudomonas aeruginosa, Gram Negative
Source text: as §1

Prot. mirabilis 90 = conditions: Proteus mirabilis
Source text: as §1

E. coli 1269B = conditions: Escherichia coli, Gram Negative
Source text: as §1

Prov. rettgeri ATCC 9250 = conditions: Providencia rettgeri, ATCC9250, Gram Negative
Source text: as §1

Ent. faecalis ATCC 29212 = conditions: Enterococcus faecalis, ATCC29212, Gram Positive and Others
Source text: as §1

Candida albicans 155 = conditions: Gram Positive and Others
Source text: as §1

Serratia marcescens SM = system: Serratia marcescens SM
Source text: as §1

E. coli 1894 E = conditions: Escherichia coli; E. coli 1894 E; Gram Negative; read-out: MIC
Source text: as §1

Staph. aureus 1059B = conditions: Staphylococcus aureus, 1059B
Source text: as §1

[2] = system: Str. pneumoniae N82-012-MC; conditions: Streptococcus pneumoniae, N82012MC
Source text: as §1

Staph. aureus ATCC 25923 = conditions: Staphylococcus aureus, ATCC25923, Gram Positive and Others
Source text: as §1

Ps. cepacia 1973 B = conditions: Burkholderia cepacia, Gram Negative
Source text: as §1

[3] = system: Citrobacter freundii BS-16; conditions: BS16
Source text: as §1

E. coli 4 = conditions: Escherichia coli, 4
Source text: as §1

[4] = system: Proteus vulgaris ATCC 6380; conditions: ATCC6380
Source text: as §1

[5] = system: Streptococcus pneumoniae 6303
Source text: as §1

Ps. aeruginosa B = conditions: Pseudomonas aeruginosa, Gram Negative
Source text: as §1

Prot. mirabilis 2 = conditions: Proteus mirabilis
Source text: as §1

A. calcoaceticus PCI-3 = conditions: Acinetobacter calcoaceticus, PCI3, Gram Negative
Source text: as §1

Staph. aureus 3037B = conditions: Staphylococcus aureus
Source text: as §1

[6] = system: Staphylococcus aureus Smith
Source text: as §1

Ser. sp. 101 = system: Ser. sp. 101
Source text: as §1

Enter. cloacae 4946 = conditions: Enterobacter cloacae, Gram Negative
Source text: as §1

Ps. aeruginosa K799/WT = conditions: Pseudomonas aeruginosa, Gram Negative
Source text: as §1

Ps. aeruginosa 56 = conditions: Pseudomonas aeruginosa, Gram Negative
Source text: as §1

Enterobacter cloacae P99 = system: Enterobacter cloacae P99
Source text: as §1

E. coli HMS1 = conditions: Escherichia coli
Source text: as §1

Bacillus megaterium 164 = conditions: Priestia megaterium
Source text: as §1

K. pneumoniae 369 = conditions: Klebsiella pneumoniae
Source text: as §1

Staph. aureus 753 = conditions: Staphylococcus aureus
Source text: as §1

Row | SMILES | MIC (E. coli 1573E) [µg/mL] | MIC (E. coli DC-2) [µg/mL] | MIC (Prot. vulgaris 100) [µg/mL] | MIC [1] [µg/mL] | MIC (E. coli 2722B) [µg/mL] | MIC (E. coli B) [µg/mL] | MIC (Ps. aeruginosa 765) [µg/mL] | MIC (E. coli 1269B) [µg/mL] | MIC (Prov. rettgeri ATCC 9250) [µg/mL] | MIC (Ent. faecalis ATCC 29212) [µg/mL] | MIC (Candida albicans 155) [µg/mL] | MIC (E. coli 1894 E) [µg/mL] | MIC (Staph. aureus 1059B) [µg/mL] | MIC (Staph. aureus ATCC 25923) [µg/mL] | MIC (Ps. cepacia 1973 B) [µg/mL] | MIC (E. coli 4) [µg/mL] | MIC (Ps. aeruginosa B) [µg/mL] | MIC (A. calcoaceticus PCI-3) [µg/mL] | MIC (Enter. cloacae 4946) [µg/mL] | MIC (Ps. aeruginosa K799/WT) [µg/mL] | further results
1 | N#CCC(=O)N[C@@H]1C(=O)N2C(C(=O)O)=C(COC(=O)N[C@H]3CCN(c4c(F)cc5c(=O)c(C(=O)O)cn(C6CC6)c5c4F)C3)CS[C@H]12 [Formula Iba, [6R-[3(S^*), 6 alpha, 7 beta]]-3-[[[[[1-(3-Carboxy-1-cyclopropyl-6,8-difluoro-1,4-dihydro-4-oxo-7-quinolinyl-3-pyrrolidinyl]-amino]carbonyl]oxy]methyl]-7-[(cyanoacetyl)amino]-8-oxo-5-thia 1-azabicyclo[4.2.0]oct-2-ene-2-carboxylic acid monosodium salt] | ≤ 0.0156 | 0.0625 | 0.0625 | 1 | ≤ 0.0156 | ≤ 0.0156 | 0.5 | ≤ 0.0156 | 0.0625 | 0.5 | > 128 | ≤ 0.0156 | 0.0313 | 0.0625 | 4 | 0.0313 | 0.25 | 0.0625 | 0.0313 | 0.5 | MIC (Staph. aureus Evans): 0.0313 µg/mL; MIC (Bacillus subtilis 558; Bacillus subtilis, 558): 0.0313 µg/mL; MIC (Cit. freundii EL-1408): 0.125 µg/mL; MIC (Prot. mirabilis 90; 90): 0.125 µg/mL; MIC (Serratia marcescens SM; Serratia marcescens): 0.125 µg/mL; MIC [2]: 0.125 µg/mL; MIC ([3]; Citrobacter freundii BS-16, constitutive ß-lactamase producer, Gram Negative, read-out: MIC): ≤ 0.0156 µg/mL; MIC ([4]; Proteus vulgaris ATCC 6380, constitutive ß-lactamase producer, Gram Negative, read-out: MIC): 0.0625 µg/mL; MIC ([5]; Streptococcus pneumoniae, 6303): 0.0313 µg/mL; MIC (Prot. mirabilis 2; Prot. mirabilis 2, Gram Negative, read-out: MIC): 0.0625 µg/mL; MIC (Staph. aureus 3037B; Staph. aureus 3037B, Gram Positive and Others, read-out: MIC): 0.0625 µg/mL; MIC ([6]; Staphylococcus aureus Smith, Gram Positive and Others, read-out: MIC): 0.0625 µg/mL; MIC (Ser. sp. 101; Ser. sp. 101, Gram Negative, read-out: MIC): 0.0625 µg/mL; MIC (Ps. aeruginosa 56): 0.25 µg/mL; MIC (Enterobacter cloacae P99): ≤ 0.0156 µg/mL; MIC (E. coli HMS1; E. coli HMS1, Gram Negative, read-out: MIC): ≤ 0.0156 µg/mL; MIC (Bacillus megaterium 164; 164): 0.0313 µg/mL; MIC (K. pneumoniae 369; 369): 0.125 µg/mL; MIC (Staph. aureus 753; Staph. aureus 753, methicillin-resistant, Gram Positive and Others, read-out: MIC): 0.0625 µg/mL
2 | N#CCC(=O)N[C@@H]1C(=O)N2C(C(=O)O)=C(COC(=O)N[C@@H]3CCN(c4c(F)cc5c(=O)c(C(=O)O)cn(C6CC6)c5c4F)C3)CS[C@H]12 [Formula Ibb, [6R-[3(R^*), 6 alpha, 7 beta]]-3-[[[[[1-(3-Carboxy-1-cyclopropyl-6,8-difluoro-1,4-dihydro-4-oxo-7-quinolinyl-3-pyrrolidinyi]amino]carbonyl]oxy]methyL]-7-[(cyanoacetyl)amino]-8-oxo-5-thia-1-azabicyclo[4.2.0]oct-2-ene-2-carboxylic acid monosodium salt] | 0.0625 | 0.25 | 0.0625 | 2 | ≤ 0.0156 | 0.0313 | 2 | 0.0625 | 0.25 | 2 | > 128 | 0.0625 | 0.125 | 0.25 | 4 | 0.125 | 1 | 0.5 | 0.125 | 1 | MIC (Staph. aureus Evans; Staph. aureus Evans, Gram Positive and Others, read-out: MIC): 0.0625 µg/mL; MIC (Bacillus subtilis 558; Bacillus subtilis 558, Gram Positive and Others, read-out: MIC): 0.0625 µg/mL; MIC (Cit. freundii EL-1408; Cit. freundii EL-1408, Gram Negative, read-out: MIC): 0.5 µg/mL; MIC (Prot. mirabilis 90; Prot. mirabilis 90, Gram Negative, read-out: MIC): 0.5 µg/mL; MIC (Serratia marcescens SM; Serratia marcescens SM, constitutive ß-lactamase producer, Gram Negative, read-out: MIC): 0.25 µg/mL; MIC ([2]; Str. pneumoniae N82-012-MC, Gram Positive and Others, read-out: MIC): 0.25 µg/mL; MIC ([3]; Citrobacter freundii): 0.0313 µg/mL; MIC ([4]; Proteus vulgaris): 0.125 µg/mL; MIC ([5]; Streptococcus pneumoniae 6303, Gram Positive and Others, read-out: MIC): 0.0625 µg/mL; MIC (Prot. mirabilis 2; 2): 0.125 µg/mL; MIC (Staph. aureus 3037B; 3037B): 0.125 µg/mL; MIC ([6]; Staphylococcus aureus): 0.125 µg/mL; MIC (Ser. sp. 101): 0.125 µg/mL; MIC (Ps. aeruginosa 56): 1 µg/mL; MIC (Enterobacter cloacae P99): ≤ 0.0156 µg/mL; MIC (E. coli HMS1; HMS1): 0.0313 µg/mL; MIC (Bacillus megaterium 164; Bacillus megaterium 164, Gram Positive and Others, read-out: MIC): 0.0625 µg/mL; MIC (K. pneumoniae 369; K. pneumoniae 369, Gram Negative, read-out: MIC): 0.5 µg/mL; MIC (Staph. aureus 753; 753): 0.125 µg/mL
